Measurements from patent US8426429B2, “2-amino-quinazoline derivatives useful as inhibitors of β-secretase (BACE)” (Jansssen Pharmaceutica N.V., priority 2004, dated 2013).

Molecular target: T1, β-secretase (BACE) (Homo sapiens, UniProt P56817)
T1 construct: purchased Panvera
Assay: BACE FS1 % Inhibition Assay
Assay type: biochemical
Method in brief: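 Percent inhibition per compound concentration was referenced to vehicle-treated enzyme and no-enzyme wells. Enzyme at a 4 μg/mL working stock plus compound was mixed for 20 min at room temperature before the FS1 substrate (300 μg/mL working stock) was added for a 1 h room-temperature reaction.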

T1 sequence (P56817 46-501): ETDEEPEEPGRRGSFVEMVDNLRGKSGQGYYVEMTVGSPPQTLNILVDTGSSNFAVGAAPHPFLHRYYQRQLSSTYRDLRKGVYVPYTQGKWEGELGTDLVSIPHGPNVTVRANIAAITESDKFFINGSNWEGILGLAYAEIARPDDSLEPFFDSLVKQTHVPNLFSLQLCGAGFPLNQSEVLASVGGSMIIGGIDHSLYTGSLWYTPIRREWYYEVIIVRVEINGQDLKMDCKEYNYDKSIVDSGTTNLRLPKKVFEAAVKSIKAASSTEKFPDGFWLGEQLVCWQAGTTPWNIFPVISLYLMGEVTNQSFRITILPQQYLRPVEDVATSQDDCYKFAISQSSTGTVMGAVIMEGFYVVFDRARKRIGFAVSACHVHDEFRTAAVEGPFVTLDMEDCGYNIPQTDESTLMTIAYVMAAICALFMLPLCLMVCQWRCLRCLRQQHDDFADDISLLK

Row | SMILES | % Inhibition (FS) (0.3 μM test compound) | % Inhibition (FS) (1 μM test compound) | % Inhibition (FS) (3 μM test compound) | % Inhibition (FS) (0.3 μM compound, FS1 substrate) | % Inhibition (FS) (1 μM compound, FS1 substrate) | % Inhibition (FS) (3 μM compound, FS1 substrate) | % Inhibition (FS) (10 μM test compound)
1 | NC1=Nc2ccc(Oc3ccccc3)cc2CN1C(CC(=O)NC1C2CC3CC(C2)CC1C3)C1CCCCC1 (centres unmarked) [Compound 314] | <30% | 45% | 85% | – | – | – | –
2 | CC(=O)Nc1ccc(C(=O)NCCN2Cc3cc(-c4cccc(C(F)(F)F)c4)ccc3N=C2N)cc1 [Compound 594] | <30% | <30% | <30% | – | – | – | –
3 | CC(C)CC(=O)NCCN1Cc2cc(Oc3ccccc3)ccc2N=C1N [Compound 190] | 51% | 86% | 101% | – | – | – | –
4 | NC1=Nc2ccc(-c3ccccc3Cl)cc2CN1CCNC(=O)C1CCC(C(F)(F)F)CC1 (centres unmarked) [Compound 690] | – | – | – | <30% | <30% | 52% | –
5 | NC1=Nc2ccc(Oc3ccccc3)cc2CN1C1CCN(C(=O)C23CC4CC(CC(C4)C2)C3)CC1 [Compound 524] | <30% | <30% | 44% | – | – | – | –
6 | CC(C)(C)OC(=O)NCC(C1CCCCC1)N1Cc2cc(Oc3ccccc3)ccc2N=C1N (centres unmarked) [Compound 257] | 67% | 105% | 111% | – | – | – | –
7 | CCCN(CC1CC1)C(=O)c1cccc(CN2Cc3cc(Oc4ccccc4)ccc3N=C2N)c1 [Compound 197] | <30% | <30% | 32% | – | – | – | –
8 | CN(C(=O)CC(C1CCCCC1)N1Cc2cc(Oc3ccccc3)ccc2N=C1N)C1CCCCC1 (centres unmarked) [Compound 199] | <30% | <30% | 82% | – | – | – | –
9 | CCCC(CCCC(=O)N(C)C1CCCCC1)N1Cc2cc(Oc3ccccc3)ccc2N=C1N (centres unmarked) [Compound 90] | – | – | 106% | – | – | – | 124%
10 | CC(C)[C@@H](CNC(=O)C1CCCCC1)N1Cc2cc(Oc3ccccc3)ccc2N=C1N [Compound 528] | <30% | <30% | 41% | – | – | – | –
11 | CN(C(=O)c1cccc(CN2Cc3cc(Oc4ccccc4-n4cccc4)ccc3N=C2N)c1)C1CCCCC1 [Compound 471] | <30% | <30% | 38% | – | – | – | –
12 | N#Cc1cccc(C(=O)NCCN2Cc3cc(-c4cncnc4)ccc3N=C2N)c1 [Compound 567] | <30% | <30% | <30% | – | – | – | –
13 | NC1=Nc2ccc(Oc3ccccc3)cc2CN1CC1CCN(C(=O)C23CC4CC(CC(C4)C2)C3)CC1 [Compound 527] | <30% | <30% | 51% | – | – | – | –
14 | CC1CCC(N(C(=O)c2cccc(CN3Cc4cc(Oc5ccccc5)ccc4N=C3N)c2)C2CCC(C)CC2)CC1 (centres unmarked) [Compound 187] | <30% | <30% | 39% | – | – | – | –
15 | CC1CCCCN1C(=O)CCCC(CCC(=O)N1CCCCC1C)N1Cc2cc(Oc3ccccc3)ccc2N=C1N (centres unmarked) [Compound 504] | <30% | 31% | 96% | – | – | – | –
16 | CN(C(=O)CCC(C1CCCCC1)N1Cc2cc(Oc3ccccc3)ccc2N=C1N)C1CCC(C(=O)OCc2ccccc2)CC1 (centres unmarked) [Compound 760] | – | – | – | <30% | 44% | 89% | –
